Reference: patent EP4603105A1, “PHARMACEUTICAL COMPOSITION CONTAINING CYCLIC COMPOUND HAVING SELECTIVE KRAS INHIBITORY EFFECT AGAINST HRAS AND NRAS” (CHUGAI SEIYAKU KABUSHIKI KAISHA, priority 2022, dated 2024)
Where a SMILES comes first, the peptide text is derived from it. Bridges are numbered along the chain shown (N, C = ends). [ ]: non-standard residue; d: D form. The star is where a group is joined. hPhe(3-Cl-4-CF3) = N[C@@H](CCc1ccc(C(F)(F)F)c(Cl)c1)C(=O)O; NPrPhe(4-CF3) = CCCN[C@@H](Cc1ccc(C(F)(F)F)cc1)C(=O)O; Pro(4-spirocPr) = O=C(O)[C@@H]1CC2(CC2)CN1; NMeGly(cPent) = CN[C@H](C(=O)O)C1CCCC1; NMeNva(3-Et) = CCC(CC)[C@H](NC)C(=O)O; NMeD = CN[C@@H](CC(=O)O)C(=O)O; NMeL = CN[C@@H](CC(C)C)C(=O)O; Morpholide = C1CN(*)CCO1; Ac5c = NC1(C(=O)O)CCCC1; Abu = CC[C@H](N)C(=O)O; Ac4c = NC1(C(=O)O)CCC1; NEtG = CCNCC(=O)O; Sar = CNCC(=O)O

Key:
[1] = test system: human lung cancer strain NCI-H441; type: cell-based
Summary of the method: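 Proliferation was scored by […] measured after the reagent was added to cultures kept at 37°C in 5% carbon dioxide.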

[2] = biological target: GDP-bound NRAS wild-type protein (Homo sapiens, UniProt P01111); experiment: Binding to NRAS by surface plasmon resonance (SPR), KD and KD ratio to KRAS
GDP-bound NRAS wild-type protein, sequence (P01111 whole entry): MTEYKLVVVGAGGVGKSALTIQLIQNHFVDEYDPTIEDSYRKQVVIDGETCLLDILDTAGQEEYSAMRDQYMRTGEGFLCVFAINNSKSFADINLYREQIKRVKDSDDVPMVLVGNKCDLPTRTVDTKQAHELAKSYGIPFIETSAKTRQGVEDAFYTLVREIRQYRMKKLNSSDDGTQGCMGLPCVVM
Summary of the method: (§1)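 Compound binding is evaluated by SPR single-cycle kinetics, with concentrations added intermittently from low to high for 75 s each. Target surfaces carry GDP-loaded biotinylated Avi-RAS at about 100–300 RU, regenerated after each cycle; temperature 30°C. A 1:1 binding model gives KD.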

HRAS wild-type protein = HRAS wild-type protein (Homo sapiens, UniProt P01112); experiment: Binding to HRAS by surface plasmon resonance (SPR), KD and KD ratio to KRAS
HRAS wild-type protein, sequence (P01112 whole entry): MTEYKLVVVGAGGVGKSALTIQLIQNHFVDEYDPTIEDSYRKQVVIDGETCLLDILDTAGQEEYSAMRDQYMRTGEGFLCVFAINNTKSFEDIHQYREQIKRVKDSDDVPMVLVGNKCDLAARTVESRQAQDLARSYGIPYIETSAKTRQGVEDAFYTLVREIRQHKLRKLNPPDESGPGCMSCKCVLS
Summary of the method: as §1

[3] = ratio of the KD value with respect to GDP-bound NRAS wild-type protein to the KD value with respect to KRAS
[4] = ratio of the KD value with respect to HRAS wild-type protein to the KD value with respect to KRAS
[5] = ratio of KD for GDP-bound NRAS wild-type protein to KD for KRAS
[6] = ratio of KD for HRAS wild-type protein to KD for KRAS

IC50 [1] [nM] | Compound | NRAS /KRAS [2, 3] | HRAS /KRAS (HRAS wild-type protein; [4]) | NRAS /KRAS [2, 5] | HRAS /KRAS (HRAS wild-type protein; [6]) | NRAS /KRAS ([2]; ratio of KD value for GDP-bound NRAS wild-type protein to KD value for KRAS (SPR)) | HRAS /KRAS (HRAS wild-type protein; ratio of KD value for HRAS wild-type protein to KD value for KRAS (SPR))
6 | CCCN1C(=O)CN(C)C(=O)CN(C)C(=O)[C@H]([C@@H](C)CC)NC(=O)[C@H](CC(C)C)N(C)C(=O)C[C@@H](C(=O)N(C)C)N(C)C(=O)[C@H](C(CC)CC)N(C)C(=O)C2(CCC2)NC(=O)[C@@H]2CCCN2C(=O)[C@H](CCc2ccc(C(F)(F)F)c(Cl)c2)NC(=O)CN(C)C(=O)[C@@H]1Cc1ccc(C(F)(F)F)cc1 [PP1960] ([NMeL]I[Sar][Sar][NPrPhe(4-CF3)][Sar][hPhe(3-Cl-4-CF3)]P[Ac4c][NMeNva(3-Et)][NMeD]-NMe2; lactam N-11) | B (a compound having 3 or more and less than 10 is denoted as B) | C (A compound having a KD ratio of 0.1 or more and less than 3 is denoted as C) | – | – | – | –
85.5 | CCO[C@@H]1C[C@H]2C(=O)NC3(CC(F)(F)C3)C(=O)N(C)[C@@H](C3CCCC3)C(=O)N(C)C(C3CCCCC3)CC(=O)N(C)[C@@H](COC)C(=O)N[C@@H]([C@@H](C)CC)C(=O)N(C)CC(=O)N(C)[C@H]3C/C=C\CCN(C3=O)[C@@H](Cc3ccc(C(F)(F)F)cc3)C(=O)N(C)CC(=O)N[C@@H](CCc3cc(F)c(C(F)(F)F)c(F)c3)C(=O)N2C1 (stereo partly drawn) [PP1586] | – | – | – | – | A (a compound having 10 or more and less than 20 is denoted as A) | A (a compound having 10 or more and less than 20 is denoted as A)
91 | CCCN1C(=O)CN(C)C(=O)CN(C)C(=O)[C@H]([C@@H](C)CC)NC(=O)[C@@H]2CCCCCCC[C@@H](NC(=O)[C@@H]3C[C@@H](OCC)CN3C(=O)[C@H](CCc3cc(F)c(C(F)(F)F)c(F)c3)NC(=O)CN(C)C(=O)[C@@H]1Cc1ccc(C(F)(F)F)cc1)C(=O)N(C)[C@@H](C1CCCC1)C(=O)N(C)[C@H](C(=O)N(C)C)CC(=O)N2C [PP0925] | – | – | A (a compound having 10 or more and less than 20 is denoted as A) | B (a compound having 3 or more and less than 10 is denoted as B) | – | –

Further lines, the compound ahead of its results:

Compound | IC50 [1] [nM] | NRAS /KRAS [2, 3] | HRAS /KRAS (HRAS wild-type protein; [4]) | NRAS /KRAS [2, 5] | HRAS /KRAS (HRAS wild-type protein; [6]) | NRAS /KRAS ([2]; ratio of KD value for GDP-bound NRAS wild-type protein to KD value for KRAS (SPR)) | HRAS /KRAS (HRAS wild-type protein; ratio of KD value for HRAS wild-type protein to KD value for KRAS (SPR))
CCO[C@@H]1C[C@H]2C(=O)NC3(CCC3)C(=O)N(C)[C@@H](C3CCCC3)C(=O)N(C)[C@H](C(=O)N(C)C)CC(=O)N(C)[C@@H](CCOC)C(=O)N[C@@H]([C@@H](C)CC)C(=O)N(C)CC(=O)N(C)[C@H]3CCCCN(C3=O)[C@@H](Cc3ccc(C(F)(F)F)cc3)C(=O)N(C)CC(=O)N[C@@H](CCc3cc(F)c(C(F)(F)F)c(F)c3)C(=O)N2C1 [PP0705] | 17.5 | C (A compound having a KD ratio of 0.1 or more and less than 3 is denoted as C) | C (A compound having a KD ratio of 0.1 or more and less than 3 is denoted as C) | – | – | – | –
CCO[C@@H]1C[C@H]2C(=O)NC3(CCC3)C(=O)N(C)[C@@H](C3CCCC3)C(=O)N(C)[C@H](C(=O)N3CCCCC3)CC(=O)N(C)[C@H]3CCCCCCc4ccc(cc4)C[C@@H](C(=O)N(C)CC(=O)N[C@@H](CCc4ccc(C(F)(F)F)c(OC)c4)C(=O)N2C1)N1CC/C=C\C[C@@H](C1=O)N(C)C(=O)CN(C)C(=O)[C@H]([C@@H](C)CC)NC3=O [PP3033] | 4.7 | – | – | A (a compound having 10 or more and less than 20 is denoted as A) | B (a compound having 3 or more and less than 10 is denoted as B) | – | –
CCCN1C(=O)CN(C)C(=O)CN(C)C(=O)[C@H](CC)NC(=O)[C@H](CC(C)C)N(C)C(=O)C[C@@H](C(=O)N2CCOCC2)N(C)C(=O)[C@H](C2CCCC2)N(C)C(=O)C2(CCCC2)NC(=O)[C@@H]2CCCN2C(=O)[C@H](CCc2ccc(C(F)(F)F)c(Cl)c2)NC(=O)CN(C)C(=O)[C@@H]1Cc1ccc(C(F)(F)F)cc1 [PP0248] ([NMeL][Abu][Sar][Sar][NPrPhe(4-CF3)][Sar][hPhe(3-Cl-4-CF3)]P[Ac5c][NMeGly(cPent)][NMeD]-Morpholide; lactam N-11) | 84 | – | – | B (a compound having 3 or more and less than 10 is denoted as B) | B (a compound having 3 or more and less than 10 is denoted as B) | – | –
CCCN1C(=O)CN(C)C(=O)CN(CC)C(=O)[C@H]([C@@H](C)CC)NC(=O)[C@H](CC(C)C)N(C)C(=O)C[C@@H](C(=O)N2CCOCC2)N(C)C(=O)[C@H](C2CCCC2)N(C)C(=O)C2(CCCC2)NC(=O)[C@@H]2CC3(CC3)CN2C(=O)[C@H](CCc2ccc(C(F)(F)F)c(Cl)c2)NC(=O)CN(C)C(=O)[C@@H]1Cc1ccc(C(F)(F)F)cc1 [PP0295] ([NMeL]I[NEtG][Sar][NPrPhe(4-CF3)][Sar][hPhe(3-Cl-4-CF3)][Pro(4-spirocPr)][Ac5c][NMeGly(cPent)][NMeD]-Morpholide; lactam N-11) | 33.2 | – | – | B (a compound having 3 or more and less than 10 is denoted as B) | C (A compound having a KD ratio of 0.1 or more and less than 3 is denoted as C) | – | –
CCC[C@H]1C(=O)N[C@@H]([C@@H](C)CC)C(=O)N2CCC[C@H]2C(=O)N(C)[C@H]2C/C=C\CCN(C2=O)[C@@H](Cc2ccc(C(F)(F)F)cc2)C(=O)N(C)CC(=O)N[C@@H](CCc2ccc(C(F)(F)F)c(OC)c2)C(=O)N2C[C@H](OCC)C[C@H]2C(=O)N(C)C2(CCC2)C(=O)N(C)[C@@H](C2CCCC2)C(=O)N(C)[C@H](C(=O)N2CCCCC2)CC(=O)N1C [PP3099] | 13.3 | – | – | A (a compound having 10 or more and less than 20 is denoted as A) | A (a compound having 10 or more and less than 20 is denoted as A) | – | –
CCCN1C(=O)CN(C)C(=O)CN(C)C(=O)[C@H]([C@@H](C)CC)NC(=O)[C@H](CC(C)C)N(C)C(=O)C[C@@H](C(=O)N2CCOCC2)N(C)C(=O)[C@H](C2CCCC2)N(C)C(=O)C2(CCCC2)NC(=O)[C@@H]2CCCN2C(=O)[C@H](CCc2ccc(C(F)(F)F)c(Cl)c2)NC(=O)CN(C)C(=O)[C@@H]1Cc1ccc(C(F)(F)F)cc1 [PP0060] ([NMeL]I[Sar][Sar][NPrPhe(4-CF3)][Sar][hPhe(3-Cl-4-CF3)]P[Ac5c][NMeGly(cPent)][NMeD]-Morpholide; lactam N-11) | 1.5 | – | – | B (a compound having 3 or more and less than 10 is denoted as B) | B (a compound having 3 or more and less than 10 is denoted as B) | – | –
CC[C@H](C)[C@@H]1NC(=O)[C@H](CC)N(C)C(=O)C[C@@H](C(=O)N(C)C)N(CC)C(=O)[C@H](C2CCCC2)N(C)C(=O)C2(CCC2)NC(=O)[C@@H]2CCN2C(=O)[C@H](CCc2cc(F)c(C(F)(F)F)c(F)c2)NC(=O)CN(C)C(=O)[C@H](Cc2ccc(C(F)(F)F)cc2)N2CCCC[C@@H](C2=O)N(C)C(=O)CN(C)C1=O [PP0660] | 131 | B (a compound having 3 or more and less than 10 is denoted as B) | B (a compound having 3 or more and less than 10 is denoted as B) | – | – | – | –
CC[C@H](C)[C@@H]1NC(=O)[C@H](CC)N(C)C(=O)C[C@@H](C(=O)N(C)C)N(C)C(=O)[C@H](C2CCCC2)N(C)C(=O)C2(CCC2)NC(=O)[C@@H]2CCN2C(=O)[C@H](CCc2cc(F)c(C(F)(F)F)c(F)c2)NC(=O)CN(C)C(=O)[C@H](Cc2ccc(C(F)(F)F)cc2)N2CCCC[C@@H](C2=O)N(C)C(=O)CN(C)C1=O [PP0657] | 32.9 | B (a compound having 3 or more and less than 10 is denoted as B) | B (a compound having 3 or more and less than 10 is denoted as B) | – | – | – | –
